Results: patent publication US20230034248A1, “PLANT STOMATA OPENING PROMOTING AGENT” (OAT Agrio Co., Ltd., priority 2019, published 2023)

Assays:
Assay type in all cases: cell-based
[1] = test system: lower epidermis of Commelina benghalensis L.; assay: Abscisic acid-induced stomatal closure inhibitory activity, first evaluation (stomatal aperture of peeled lower epidermis); details: for Stomatal Aperture: 2 hours
Protocol: (§1) The lower epidermis of Commelina benghalensis L. was peeled off, immersed in the stomatal aperture measurement solution, and allowed to stand still in a dark place for 2 hours. Then, the lower epidermis of Commelina benghalensis L. was immersed in test solutions prepared by adding steviol to the stomatal aperture measurement solution to give 100 or 300 μM (final concentration) or in the stomatal aperture measurement solution without the addition of steviol (Comparative Example 1), and allowed to stand still in a bright place for 3 hours. The lower epidermis of Commelina benghalensis L. after immersion in the test solutions was photographed with a digital camera (LCD (Liquid Crystal Display), manufactured by KENIS LIMITED) attached to a microscope (Olympus BH2; objective lens SPlan 10 [manufactured by Olympus Corporation] magnification 200×). The stomatal aperture was measured with measurement software (digital microanalyzer, manufactured by Nippon Polaroid Corporation; Polaroid is the registered trademark). The stomatal aperture was measured for 80 or more stomata, for each addition concentration. The stomatal aperture obtained at each addition concentration was compared with the stomatal aperture obtained without the addition of steviol (0 μM, Comparative Example 1), and statistical analysis was performed by student's t-test.
The lower epidermis of Commelina benghalensis L. was peeled off, immersed in the stomatal aperture measurement solution, and allowed to stand still in a bright place for 3 hours. Then, the lower epidermis of Commelina benghalensis L. was immersed in test solutions prepared by adding 10 μM (final concentration) of abscisic acid and 400 or 600 μM of steviol to the stomatal aperture measurement solution or in the stomatal aperture measurement solution without the addition of steviol (Comparative Example 8) prepared by adding 10 μM (final concentration) of abscisic acid alone, and allowed to stand still for 2 hours. Then, the stomatal aperture was measured as in Example 1.
(§2) The lower epidermis of Commelina benghalensis L. was peeled off, immersed in the stomatal aperture measurement solution, and allowed to stand still in a bright place for 3 hours. Then, the lower epidermis of Commelina benghalensis L. was immersed in test solutions prepared by adding 10 μM (final concentration) of abscisic acid and 300 or 800 μM (final concentration) of stevioside to the stomatal aperture measurement solution or in the stomatal aperture measurement solution without the addition of stevioside (Comparative Example 9) prepared by adding 10 μm (final concentration) of abscisic acid alone, and allowed to stand still for 2 hours. Then, the stomatal aperture was measured as in Example 1.
as §2, with “100, 300,” for “300”, “500” for “800”, “rebaudioside A” for “stevioside”, “10)” for “9)”
The lower epidermis of Commelina benghalensis L. was peeled off, immersed in the stomatal aperture measurement solution, and allowed to stand still in a bright place for 3 hours. […]

[2] = test system: lower epidermis of Commelina benghalensis L.; assay: Stomatal opening promoting activity in a dark place (stomatal aperture of peeled lower epidermis); details: for Stomatal Aperture: dark place 3 hours
Protocol: as §1
(§3) The lower epidermis of Commelina benghalensis L. that had been peeled off was immersed in the stomatal aperture measurement solution, and allowed to stand still in a dark place for 2 hours. Then, the lower epidermis of Commelina benghalensis L. was immersed in test solutions prepared by adding steviol to the stomatal aperture measurement solution to give 200 or 300 μM (final concentration) or in the stomatal aperture measurement solution without the addition of steviol (Comparative Example 4), and allowed to stand still in a dark place for 3 hours. Then, the stomatal aperture was measured as in Example 1.
as §3, with “stevioside” for “steviol”, “give 100,” for “give”, “5),” for “4),”
as §3, with “rebaudioside A” for “steviol”, “10, 100, 300,” for “200”, “500” for “300”, “6),” for “4),”
as §3, with “FARM A” for “steviol”, “a 2,000-, 1,000-,” for “200”, “500-fold dilution” for “300 μM”, “7),” for “4),”

[3] = test system: lower epidermis of Commelina benghalensis L.; assay: Stomatal opening promoting activity in a bright place (stomatal aperture of peeled lower epidermis); details: for Stomatal Aperture: bright place 3 hours, mean±standard deviation
Protocol: as §1
The lower epidermis of Commelina benghalensis L. that had been peeled off was immersed in the stomatal aperture measurement solution, and allowed to stand still in a dark place for 2 hours. Then, the lower epidermis of Commelina benghalensis L. was immersed in test solutions prepared by adding FARM A to the stomatal aperture measurement solution to give a 500- or 250-fold dilution (final concentration) or in the stomatal aperture measurement solution without the addition of FARM A (Comparative Example 2), and allowed to stand still in a bright place for 3 hours. Then, the stomatal aperture was measured as in Example 1.

[4] = addition concentration 300 μM with 10 μM abscisic acid

C=C1C[C@@]23CC[C@H]4[C@@](C)(CCC[C@@]4(C)C(=O)O[C@@H]4O[C@H](CO)[C@@H](O)[C@H](O)[C@H]4O)[C@@H]2CC[C@]1(O[C@@H]1O[C@H](CO)[C@@H](O)[C@H](O[C@@H]2O[C@H](CO)[C@@H](O)[C@H](O)[C@H]2O)[C@H]1O[C@@H]1O[C@H](CO)[C@@H](O)[C@H](O)[C@H]1O)C3 [rebaudioside A]
stomatal aperture as compared to without the addition (student's t-test) ([1]; 100, 300, or 500 μM with 10 μM abscisic acid): statistically significant increase in the stomatal aperture | Stomatal Aperture ([1]; addition concentration 100 μM with 10 μM abscisic acid): 7.74 ± 2.90 μm | Stomatal Aperture [1, 4]: 9.85 ± 2.57 μm | Stomatal Aperture ([1]; addition concentration 500 μM with 10 μM abscisic acid): 9.32 ± 2.69 μm | Stomatal Aperture ([2]; addition concentration 10 μM): 8.70 ± 0.39 μm | Stomatal Aperture ([2]; addition concentration 100 μM): 9.53 ± 0.45 μm | Stomatal Aperture ([2]; addition concentration 300 μM): 11.46 ± 0.55 μm | Stomatal Aperture ([2]; addition concentration 500 μM): 9.05 ± 0.40 μm | stomatal aperture as compared to without the addition (student's t-test) ([2]; every concentration (10, 100, 300, 500 μM), dark place): statistically significant increase in the stomatal aperture

C=C1C[C@@]23CC[C@H]4[C@@](C)(CCC[C@@]4(C)C(=O)O)[C@@H]2CC[C@]1(O)C3 [steviol]
stomatal aperture as compared to without the addition (student's t-test) ([1]; 400 or 600 μM with 10 μM abscisic acid): statistically significant increase in the stomatal aperture | Stomatal Aperture ([1]; addition concentration 400 μM with 10 μM abscisic acid): 10.65 ± 0.48 μm | Stomatal Aperture ([1]; addition concentration 600 μM with 10 μM abscisic acid): 13.27 ± 0.49 μm | stomatal aperture as compared to without the addition (student's t-test) ([2]; 200 or 300 μM, dark place): statistically significant increase in the stomatal aperture | Stomatal Aperture ([2]; addition concentration 200 μM): 15.00 ± 0.32 μm | Stomatal Aperture ([2]; addition concentration 300 μM): 11.94 ± 0.42 μm | stomatal aperture as compared to without the addition (student's t-test) ([3]; 300 μM, bright place): statistically significant increase in the stomatal aperture | stomatal aperture as compared to without the addition ([3]; 100 or 300 μM, bright place): an increase in the stomatal aperture | Stomatal Aperture ([3]; addition concentration 100 μM): 15.16 ± 0.33 μm | Stomatal Aperture ([3]; addition concentration 300 μM): 16.95 ± 0.37 μm

C=C1C[C@@]23CC[C@H]4[C@@](C)(CCC[C@@]4(C)C(=O)O[C@@H]4O[C@H](CO)[C@@H](O)[C@H](O)[C@H]4O)[C@@H]2CC[C@]1(O[C@@H]1O[C@H](CO)[C@@H](O)[C@H](O)[C@H]1O[C@@H]1O[C@H](CO)[C@@H](O)[C@H](O)[C@H]1O)C3 [stevioside]
stomatal aperture as compared to without the addition (student's t-test) ([1]; 300 or 800 μM with 10 μM abscisic acid): statistically significant increase in the stomatal aperture | Stomatal Aperture [1, 4]: 7.03 ± 0.39 μm | Stomatal Aperture ([1]; addition concentration 800 μM with 10 μM abscisic acid): 6.49 ± 0.32 μm | stomatal aperture as compared to without the addition ([2]; 100, 200 or 300 μM, dark place): an increase in the stomatal aperture | stomatal aperture as compared to without the addition (student's t-test) ([2]; 100 or 200 μM, dark place): statistically significant increase in the stomatal aperture | Stomatal Aperture ([2]; addition concentration 100 μM): 6.83 ± 0.23 μm | Stomatal Aperture ([2]; addition concentration 200 μM): 7.33 ± 0.31 μm | Stomatal Aperture ([2]; addition concentration 300 μM): 5.81 ± 0.20 μm
